Experimental data taken from patent US11908550B2, “Method for determining different PBDEs derivatives from their response to activities of enoyl-ACP reductase” (Nanjing University, priority 2020, dated 2024).
“Also recorded” adds a separate entry of the source.

Target: T1, enoyl-ACP reductase (recombinant FabI) (Escherichia coli, UniProt P0AEK4)
T1 construct: His; made in house; host or cells: E. coli
Test: in vitro binding activity assay (FabI enzyme activity, oxidation rate of NADH to NAD+ at 340 nm)
Assay type: biochemical, E. coli
Settings: PBDEs 0.014-10 μM incubated with 100 nM recombinant FabI on ice for 60 minutes
Protocol: The in vitro binding activity assay was as follows: overexpression of His-labeled FabI in the E. coli lysate was prepared. When the bacterial optical density (OD600) reached 0.6, the expression was induced overnight with 1 mm IPTG at 16° C. Then, the bacteria were collected and washed once with PBS. The bacteria were lysed in the lysis buffer containing 500 mM NaCl, 10 mm Tris HCl and 0.1% NP-40 (pH=8.5). FabI was purified from the supernatant with Ni-NTA agarose (Qiagen) and centrifuged at 14000 g for 30 min. The resin containing Ni-NTA was transferred to a Poly-Prep column (Bio-Red) and equilibrated twice with washing buffer (50 mm PBS, pH 8.2, 300 mM NaCl and 10 mm imidazole). After incubation with FabI lysate at 4° C. for 30 minutes, the resin was washed twice with a washing buffer, and the FabI protein was eluted with a buffer containing 50 mm PBS, pH 8.2, 300 mM NaCl and 250 mm imidazole. 300 μM butyl coenzyme A was added and followed by adding the mixture of 100 nM recombinant FabI, 400 μM NADH and 40 μM NAD+. The oxidation rate of NADH to NAD+ was measured every 2 minutes with a microplate reader at 340 nm. In order to determine the inhibition ability of PBDEs derivatives to the FabI enzyme activity, PBDEs with different concentrations (0.014-10 μM) were incubated with 100 nM recombinant FabI on ice for 60 minutes, and then the oxidation rate of NADH to NAD+ was determined.

T1 sequence (P0AEK4 whole entry): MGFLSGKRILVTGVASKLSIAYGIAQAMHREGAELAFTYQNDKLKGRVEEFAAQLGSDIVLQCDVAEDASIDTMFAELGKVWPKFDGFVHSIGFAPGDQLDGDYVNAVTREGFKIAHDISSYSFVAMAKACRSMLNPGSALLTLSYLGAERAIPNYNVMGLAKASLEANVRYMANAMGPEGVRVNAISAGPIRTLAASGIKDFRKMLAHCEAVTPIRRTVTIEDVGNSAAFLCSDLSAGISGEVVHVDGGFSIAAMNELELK

Structure (SMILES) | in vitro measurement of the binding activity
Oc1c(Oc2ccc(Br)cc2Br)cc(Br)c(Br)c1Br [2OHBDE123] | No inhibition; also recorded: No inhibit
COc1ccc(Oc2ccc(Br)cc2Br)c(Br)c1 [4MeOBDE17] | No inhibition; also recorded: No inhibit
Oc1cc(Br)c(Oc2ccc(Br)cc2Br)cc1Br [4OHBDE49] | able to inhibit; also recorded: inhibition
COc1cc(Oc2ccc(Br)cc2Br)c(Br)cc1Br [5MeOBDE47] | No inhibition; also recorded: No inhibit
COc1cc(Br)cc(Br)c1Oc1ccccc1Br [6MeOBDE17] | No inhibition; also recorded: No inhibit
COc1cc(Br)cc(Br)c1Oc1ccc(Br)cc1Br [6MeOBDE47] | No inhibition; also recorded: No inhibit
COc1cc(Br)c(Br)c(Br)c1Oc1ccc(Br)cc1Br [6MeOBDE85] | No inhibition; also recorded: No inhibit
COc1c(Br)cc(Br)c(Br)c1Oc1ccc(Br)cc1Br [6MeOBDE90] | No inhibition; also recorded: No inhibit
Oc1cc(Br)cc(Br)c1Oc1ccccc1Br [6OHBDE17] | Inhibit
Oc1cc(Br)cc(Br)c1Oc1ccc(Br)cc1Br [6OHBDE47] | Inhibit
Oc1c(Br)cc(Br)c(Br)c1Oc1ccc(Br)cc1Br [6OHBDE90] | Inhibit
Oc1c(Br)c(Br)c(Br)c(Br)c1Oc1ccc(Br)cc1Br [6OHBDE137] | Inhibit
Oc1cc(Cl)ccc1Oc1ccc(Cl)cc1Cl [TCS, Triclosan, reference compound] | Inhibit
